{"source": "patent US10619182B2", "about": "“Method, device and system for testing drug sensitivity” (HITACHI, LTD., priority 2014, dated 2020)", "format_in_all_cases": "cell-based", "key": {"[1]": {"tested_on": "Staphylococcus aureus (ATCC25923)", "experiment": "Antimicrobial susceptibility test using the ATP method (dead bacteria ATP / live bacteria ATP ratio)", "settings": "S. aureus, ABPC 0.25 μg/mL, LVFX 0.125 μg/mL, FIG. 12", "description": "(§1) In this experiment, Escherichia coli (ATCC25922 strain; hereinafter, referred to as E. coli) and Staphylococcus aureus (ATCC25923; hereinafter, referred to as S. aureus) are used as the bacterial cell. An antimicrobial susceptibility test using the ATP method is carried out for both of these. As antibiotics, ampicillin and levofloxacin (hereinafter, referred to as LVFX) are used. First, the bacterial cells are cultured overnight on an LB agar medium, and the next day, a colony is suspended in a Mueller-Hinton (hereinafter, referred to as MH) medium, thereby preparing a bacterial suspension prepared in 0.5 McFarland. Next, the bacterial suspension diluted 500 times in the MH medium is distributed as much as each 50 μL to the plate to which the MH medium containing the antibiotic whose concentration is twice the final concentration is distributed in advance as much as each 50 μL. The static culture is carried out at 37° C. for a certain period of time, and the bacterial suspension is prepared. For the final concentration of the antibiotic, ABPC is set to 4 μg/mL and LVFX is set to 0.125 μg/mL in a case where E. coli is a measurement target. In a case where S. aureus is a measurement target, ABPC is set to 0.25 μg/mL and LVFX is set to 0.125 μg/mL. The bacterial cells are compared with the bacterial cells cultured in the MH medium having no antibiotic contained therein. The live bacteria ATP is prepared by mixing 2 μL of the ATP eliminating solution with 18 μL of the above-described bacteria culture liquid, and the mixture is left static at room temperature for 30 minutes. Thereafter, 20 μL of the ATP extracting reagent is mixed therewith, and the mixture is left static at room temperature for one minute so as to prepare the live bacteria ATP. The dead bacteria ATP is prepared by adding the bacteria culture liquid onto a filter (membrane pore size 0.22 μm). The filtrate obtained through filtering using centrifugation is used as the dead bacteria ATP. The luminescence reagent is added to the prepared live bacteria ATP or dead bacteria ATP, and is subjected to photon counting for one minute. The obtained luminescence amount (amount of luminescence (a.u.)) is used as an index of the ATP amount. According to the above-described experiment, a luminescence amount ratio between the dead ATP luminescence amount and the live ATP luminescence amount is obtained. FIGS. 11 and 12 illustrate a result obtained by calculating the luminescence amount ratio as an amount ratio between the live bacteria ATP and the dead bacteria ATP."}, "[2]": {"tested_on": "Escherichia coli (ATCC25922 strain)", "experiment": "Antimicrobial susceptibility test using the ATP method (dead bacteria ATP / live bacteria ATP ratio)", "settings": "E. coli, ABPC 4 μg/mL, LVFX 0.125 μg/mL, FIG. 11", "description": "as §1"}, "E. coli": {"tested_on": "E. coli", "experiment": "Time-dependent change in live and dead bacteria ATP luminescence amount (Methods (1) to (4))", "from_the_text": "Next, a method for measuring ATP derived from the live bacteria and the dead bacteria will be described with reference to FIG. 2. A live bacteria ATP method in Method (1) is used in eliminating ATP5 outside a bacterial cell so as to measure ATP2000 included in the cell membrane of the live bacterium 2 and ATP3000 included in the cell membrane of the dead bacterium 3 having no damage to the cell membrane. A submerged ATP method in Method (2) is used in measuring the dead bacteria 4 having the damaged cell membrane and the free ATP5 in the culture liquid 1 while the bacterial cells of the live bacterium 2 and the dead bacteria 3 and 4 are included. The dead bacterium 4 serves as a measurement target, since a substrate and enzyme of enzyme luciferase reaction which are bioluminescent molecules (to be described later) enter the dead bacterium 4 from a damaged site. […]\nNext, a result example obtained in such a way that E. coli as an example is processed according to Methods (1) to (4) so as to measure an ATP amount will be described with reference to FIGS. 4a and 4b. […] The luciferase oxidizes luciferin which serves as a substrate in the presence of ATP and Mg^2+ inside the bacteria, and a luminescence amount generated at that time is proportional to the ATP amount. Accordingly, bacteria growth is evaluated, based on a change in the luminescence amount.\nIn the present embodiment, the luminescence amount is represented by integration of a photon count value of 60 sec, and the unit is defined as the luminescence amount (amount of luminescence (a.u.)). As described above, the luminescence amount and the ATP amount are in a proportional relationship. In a case where the luminescence amount increases, it is determined that the ATP amount increases.\nFIG. 4a illustrates a result obtained by culturing E. coli on the absence of antibiotics. […] If the results in FIGS. 4a and 4b are compared with each other, in FIG. 4a, according to the live bacteria ATP method in Method (1), the luminescence amount increases with the lapse of the culture time until four hours of the culture time. […]"}}, "data": [{"smiles": "CC1(C)S[C@@H]2[C@H](NC(=O)[C@H](N)c3ccccc3)C(=O)N2[C@H]1C(=O)O", "note": "[ABPC, ampicillin]", "values": [{"measurement": "time after start of antimicrobial susceptibility culture at which the effect can be determined (ratio dead bacteria ATP/live bacteria ATP = 1)", "setting": "[1]", "value": "approximately two and a half"}, {"measurement": "ratio of the dead bacteria ATP amount/the live bacteria ATP amount as the culture time elapses", "setting": "[1]; MH medium, 37° C.", "value": "increases"}, {"measurement": "time after start of antimicrobial susceptibility culture at which the effect can be determined (ratio dead bacteria ATP/live bacteria ATP = 1)", "setting": "[2]", "value": "approximately three"}, {"measurement": "ratio of the dead bacteria ATP amount/the live bacteria ATP amount as the culture time elapses", "setting": "[2]; MH medium, 37° C.", "value": "increases"}, {"measurement": "luminescence amount according to submerged ATP method (2) to total ATP method (4)", "setting": "E. coli; E. coli cultured in the presence of 8 μg/mL ampicillin, FIG. 4b", "value": "increases or does not vary greatly"}, {"measurement": "luminescence amount of the live bacteria ATP according to Method (1)", "setting": "E. coli; E. coli cultured in the presence of 8 μg/mL ampicillin, after three hours of culture, FIG. 4b", "value": "decreases with the lapse of the culture time"}, {"measurement": "action of the antibiotic on growth of live bacteria", "setting": "E. coli; E. coli, 8 μg/mL ampicillin, during four hours of the culture time", "value": "stops the growth of the live bacteria so as to kill the bacteria with the lapse of time"}]}]}
